# Experimental data as given in patent publication EP0212479A1, “Use of lactam amides as efficiency improvers in animals” (BAYER AG, priority 1985, dated 1987).
# Assay: Rat feeding trial (Ratten-Fütterungsversuch), growth promotion
# Assay type: in vivo, Laborratten vom Typ SPF Wistar
# Settings: female rats 90-110 g, active substance in feed ad lib, Dosis 25 ppm, 13-day trial, weight gain relative to Kontrolle = 100
# Text: Weibliche Laborratten 90-110 g schwer vom Typ SPF Wistar tZüchtung Hagemann) werden ad lib mit Standard Rattenfutter, das mit der gewünschten Menge Wirkstoff versetzt ist, gefüttert. Jeder Versuchsansatz wird mit Futter der identischen Charge durchgeführt, so daß Unterschiede in der Zusammensetzung des Futters die Vergleichbarkeit der Ergebnisse nicht beeinträchtigen können.
# Die Ratten erhalten Wasser ad lib.
# Jeweils 12 Ratten bilden eine Versuchsgruppe und werden mit Futter, das mit der gewünschten Menge Wirkstoff versetzt ist gefüttert. Eine Kontrollgruppe erhält Futter ohne Wirkstoff. Das durchschnittliche Körpergewicht sowie die Streuung in den Körpergewichten der Ratten ist in jeder Versuchsgruppe gleich, so daß eine Vergleichbarkeit der Versuchsgruppen untereinander gewährleistet ist.
# Während des 13-tägigen Versuchs werden Gewichtszunahme und Futterverbrauch bestimmt.
# Es werden die aus der Tabelle ersichtlichen Ergebnisse erhalten: […]
row,Structure (SMILES),Zuwachs
1,FC(F)(F)c1cccc(CNC2=NCCCCC2)c1 [14 (Maleinat)],117
2,CC(NC1=NCCCCC1)c1cccc(C(F)(F)F)c1 (stereo not drawn) [Beispiel 1],111
3,FC(F)(F)c1ccc(CNC2=NCCCCC2)cc1 [Beispiel 3],107
4,CC(C)c1ccc(C(F)(F)F)cc1CNC1=NCCCCC1 [Beispiel 9],104
5,FC(F)(F)c1ccccc1CNC1=NCCCCC1 [Beispiel 10],107
6,"FC(F)(F)c1cccc(CNC2=NCCCCC2)c1 [Beispiel 13, 2-(3-Trifluormethyl-benzylamino)-tetrahydroazepin]",112
